Consider 1 compound from ChEMBL document CHEMBL6083229, “Bisubstrate inhibitors of 6-hydroxymethyl-7,8-dihydroptein pyrophosphokinase: Toward cell permeability” (Bioorg Med Chem Lett, 2024).

In brackets after ≈: the same amount, converted by molar mass.

The nature of assay [1]: Binding affinity to HPPK (unknown origin) assessed as dissociation constant by MST analysis. Further details: species or system Bacteria.
Assay [2] relates to Staphylococcus epidermidis. Kind of assay: Antibacterial activity against Staphylococcus epidermidis assessed as inhibition of bacterial growth in LB media. It is filed as functional.
A further assay concerns Escherichia coli. Kind of assay: Antibacterial activity against Escherichia coli MG1655 assessed as inhibition of bacterial growth in LB media. It is filed as functional.

As for `Nc1nc2[nH]cc(CCCN3CCC(SC[C@H]4O[C@@H](n5cnc6c(N)ncnc65)[C@H](O)[C@@H]4O)CC3C(=O)O)c2c(=O)[nH]1` (stereo partly specified), the Kd in assay [1] was found to be 12.8 µM. In addition, in assay [2], the MIC50 is 120 µM (≈ 72.1 µg/mL) and the MIC90 turned out to be 240 µM (≈ 144 µg/mL). The MIC in assay [2] (read-out: MIC100) was 400 µM (≈ 240 µg/mL). Also, in the assay with Escherichia coli, the MIC10 is 400 µM (≈ 240 µg/mL) and the MIC30 was found to be 2000 µM (≈ 1200 µg/mL).
